Patent US8940685B2, “Method for preparing active peptides from corn germ proteins” (China National Research Institute of Food and Fermentation …, priority 2011, dated 2015)
pIC50: −log10 of the molar value.

Legend:
SHR = conditions: oral gavage 50 mg/kg, after two hours; cited from earlier work
ACE = ACE (Homo sapiens, UniProt P12821); conditions: read-out: in vitro antihypertensive activity IC50; cited from earlier work
[1] = system: spontaneous hypertension rats; experiment: antihypertensive effect on spontaneous hypertension rat, 8 weeks of continuous gavage; format: in vivo; conditions: for blood pressure: Captopril group 10 mg/kg.bw gavage, n = 8
Protocol: The blank control group was gavaged with the same volume of distilled water, and the positive control group was gavaged with 10 mg/kg.bw captopril.

[2] = after 8 weeks of continuous gavage, each group, P>0.05

Chain of ACE (P12821 30-1306, species assumed): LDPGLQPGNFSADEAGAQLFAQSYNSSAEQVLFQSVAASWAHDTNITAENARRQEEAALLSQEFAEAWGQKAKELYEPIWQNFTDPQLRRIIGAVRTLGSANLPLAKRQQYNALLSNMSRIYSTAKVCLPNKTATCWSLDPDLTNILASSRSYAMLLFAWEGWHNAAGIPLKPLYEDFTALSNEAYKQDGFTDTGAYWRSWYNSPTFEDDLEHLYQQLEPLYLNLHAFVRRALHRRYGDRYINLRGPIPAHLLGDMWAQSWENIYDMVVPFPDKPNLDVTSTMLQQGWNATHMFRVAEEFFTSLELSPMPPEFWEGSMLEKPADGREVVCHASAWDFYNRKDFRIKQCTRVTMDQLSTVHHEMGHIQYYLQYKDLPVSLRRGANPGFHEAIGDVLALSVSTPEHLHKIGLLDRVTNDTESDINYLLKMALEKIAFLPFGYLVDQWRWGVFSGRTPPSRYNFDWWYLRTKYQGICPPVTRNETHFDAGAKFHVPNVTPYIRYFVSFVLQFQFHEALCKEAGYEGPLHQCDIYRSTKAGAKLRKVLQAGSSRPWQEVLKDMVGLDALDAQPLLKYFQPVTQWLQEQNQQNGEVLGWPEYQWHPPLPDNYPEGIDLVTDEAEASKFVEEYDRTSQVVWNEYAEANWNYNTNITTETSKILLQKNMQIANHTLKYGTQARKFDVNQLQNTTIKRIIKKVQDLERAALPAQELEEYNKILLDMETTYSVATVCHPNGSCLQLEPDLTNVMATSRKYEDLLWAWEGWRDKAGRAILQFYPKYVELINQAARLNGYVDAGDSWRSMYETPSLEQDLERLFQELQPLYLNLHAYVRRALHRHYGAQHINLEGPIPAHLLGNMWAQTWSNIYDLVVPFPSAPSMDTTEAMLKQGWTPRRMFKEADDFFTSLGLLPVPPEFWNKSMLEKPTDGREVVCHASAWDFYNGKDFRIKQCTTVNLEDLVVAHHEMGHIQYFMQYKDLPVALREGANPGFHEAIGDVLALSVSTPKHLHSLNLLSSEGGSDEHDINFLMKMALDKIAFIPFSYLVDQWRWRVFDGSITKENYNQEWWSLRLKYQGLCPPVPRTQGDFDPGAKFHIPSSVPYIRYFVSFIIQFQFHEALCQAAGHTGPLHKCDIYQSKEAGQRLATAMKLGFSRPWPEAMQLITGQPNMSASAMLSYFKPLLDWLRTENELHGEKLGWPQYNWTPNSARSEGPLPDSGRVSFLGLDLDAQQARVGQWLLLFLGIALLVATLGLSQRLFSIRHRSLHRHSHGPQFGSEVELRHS

Row | Compound | drop of blood pressure (SHR) [mmHg] | pIC50 (ACE) | blood pressure ([1]; 0w) [mmHg] | blood pressure ([1]; 1w) [mmHg] | blood pressure ([1]; 2w) [mmHg] | blood pressure ([1]; 3w) [mmHg] | blood pressure ([1]; 4w) [mmHg] | blood pressure ([1]; 5w) [mmHg] | blood pressure ([1]; 6w) [mmHg] | blood pressure ([1]; 7w) [mmHg] | blood pressure ([1]; 8w) [mmHg] | body weight [1, 2] | heart rate [1, 2] | heart/body weight ratio [1, 2] | Serum aldosterone concentration vs control group ([1]; captopril group 10 mg/kg.bw, n=8, P<0.01)
1 | alanine-Tyrosine [AY] | 9.5 | 4.85 | – | – | – | – | – | – | – | – | – | – | – | – | –
2 | C[C@H](CS)C(=O)N1CCC[C@H]1C(=O)O [Captopril, captopril] | – | – | 193 ± 6 | 184 ± 16 | 177 ± 9 | 174 ± 12 | 170 ± 14 | 168 ± 12 | 164 ± 17 | 162 ± 15 | 161 ± 16 | no significant change | no significant change | no significant change | significantly lower
